Experiment [1] relates to Proteus vulgaris IAM-1025. Nature of the experiment: in vitro antimicrobial activity, two-fold agar-plate dilution method (MIC). The format is cell-based. The note with it: IAM1025, heart infusion agar, 37° C., 20 hours. The protocol: (§1) In vitro antimicrobial activity was determined by the two-fold agar-plate dilution method as described below.
(§2) One loopful of an overnight culture of each test strain in Tripticase-soy broth (approximately 10^8 viable cells per ml) was streaked on heart infusion agar (HI-agar) containing graded concentrations of antimicrobial agents, and the minimal inhibitory concentration (MIC) was expressed in term of μg/ml after incubation at 37° C. for 20 hours.

Experiment [2] has as its system Pseudomonas aeruginosa NCTC-10490. The description is as above. The note with it: NCTC10490, heart infusion agar, 37° C., 20 hours. The format is cell-based. How it is done:
as §1, §2

This passage reports MIC results from patent publication US4596829A, “7-acylaminocephalosporanic acid derivatives and processes for the preparation thereof” (Fujisawa Pharmaceutical Co., Ltd., priority 1980, dated 1986).

Values after ≈ are worked out from the molar mass of the structure shown.

A word on the MIC: it is the lowest concentration that inhibits growth of the organism. A higher MIC goes with a less susceptible organism.

`CC(O/N=C(\C(=O)NC1C(=O)N2C(C(=O)O)=CCSC12)c1nc(N)sc1Cl)C(=O)O` (stereo not drawn) [Compound 1, 7-[2-(2-amino-5-chlorothiazol-4-yl)-2-(1-carboxyethoxyimino)acetamido]-3-cephem-4-carboxylic acid (syn isomer)]: the results for the minimum inhibitory concentration (MIC) in experiment [1] and in experiment [2] were 0.05 µg/mL (≈ 0.105 µM) and 0.78 µg/mL (≈ 1.64 µM), respectively.

Consider `C#CCO/N=C(\C(=O)NC1C(=O)N2C(C(=O)O)=C(CSc3nncs3)CSC12)c1nc(N)sc1Cl` (stereo not drawn) [Compound 2, 7-[2-(2-amino-5-chlorothiazol-4-yl)-2-propargyloxyiminoacetamido]-3-(1,3,4-thiadiazol-2-yl)thiomethyl-3-cephem-4-carboxylic acid (syn isomer)], for which the MIC in experiment [1] came out at 1.56 µg/mL (≈ 2.73 µM); in experiment [2] it was 0.78 µg/mL (≈ 1.36 µM).

`Nc1nc(/C(=N/OCC(=O)O)C(=O)NC2C(=O)N3C(C(=O)O)=C(CSc4nncs4)CSC23)c(Cl)s1` (stereo not drawn) [Compound 3, 7-[2-(2-amino-5-chlorothiazol-4-yl)-2-carboxymethoxyiminoacetamido]-3-(1,3,4-thiadiazol-2-yl)thiomethyl-3-cephem-4-carboxylic acid (syn isomer)]: the results for the MIC in experiment [1] and in experiment [2] were 0.025 µg/mL (≈ 0.0422 µM) and 0.78 µg/mL (≈ 1.32 µM), respectively.

`C=CCO/N=C(\C(=O)NC1C(=O)N2C(C(=O)O)=C(CSc3nncs3)CSC12)c1nc(N)sc1Cl` (stereo not drawn) [Compound 4, 7-[2-(2-amino-5-chlorothiazol-4-yl)-2-allyloxyiminoacetamido]-3-(1,3,4-thiadiazol-2-yl)thiomethyl-3-cephem-4-carboxylic acid (syn isomer)]: the figures for the MIC in experiment [1] and in experiment [2] were 1.56 µg/mL (≈ 2.72 µM) and 0.78 µg/mL (≈ 1.36 µM), respectively.

For the compound `Nc1nc(/C(=N/OC2C=CCC2)C(=O)NC2C(=O)N3C(C(=O)O)=C(CSc4nncs4)CSC23)c(Cl)s1` (stereo not drawn) [Compound 5, 7-[2-(2-amino-5-chlorothiazol-4-yl)-2-(2-cyclopenten-1-yl)oxyiminoacetamido]-3-(1,3,4-thiadiazol-2-yl)thiomethyl-3-cephem-4-carboxylic acid (syn isomer)], the MIC in experiment [1] and in experiment [2] was 0.39 µg/mL (≈ 0.65 µM) in each case.

Consider `Nc1nc(/C(=N/OCC(=O)O)C(=O)NC2C(=O)N3C(C(=O)O)=C(Cl)CSC23)c(Cl)s1` (stereo not drawn) [Compound 6, 7-[2-(2-amino-5-chlorothiazol-4-yl)-2-carboxymethoxyiminoacetamido]-3-chloro-3-cephem-4-carboxylic acid (syn isomer)], for which the minimal inhibitory concentration (MIC) in experiment [1] is 0.05 µg/mL (≈ 0.101 µM); in experiment [2], 0.78 µg/mL (≈ 1.57 µM).
